In publication PMC8286840, “Identifying SARS-CoV-2 antiviral compounds by screening for small molecule inhibitors of Nsp3 papain-like protease” (Biochemical Journal, 2021):
Structures can show the parent of a compound that is named as a salt. Where two headings read alike, the source gives them in different places. Where a SMILES comes first, the peptide text is derived from it. Bridges are numbered along the chain shown (N, C = ends). The star is where a group is joined. Cbz = O=C(OCc1ccccc1)*; CH2F = FC*

Key:
[1] = molecular target: T1, SARS-CoV-2 PLpro (nsp3 1564–1878) (Severe acute respiratory syndrome coronavirus 2, UniProt P0DTD1); experiment: biochemical; set-up: FRET-quenched peptide (Pro3) cleavage by PLpro, 10 min pre-incubation, slope over 20 min, normalised to no-compound control; settings: low concentration screen, read-out: % of control remaining
[2] = molecular target: T1, SARS-CoV-2 PLpro (nsp3 1564–1878); experiment: biochemical; set-up: FRET-quenched peptide (Pro3) cleavage by PLpro, 10 min pre-incubation, slope over 20 min, normalised to no-compound control; settings: high concentration screen, read-out: % of control remaining

COc1cc(C(=O)c2ccc3ncccc3c2)cc(OC)c1OC [quinolin-6-yl(3,4,5-trimethoxyphenyl)methanone]
remaining activity at 1.25 µM ([1]; Well no.=6127): 99.8% | remaining activity at 3.75 µM ([2]; Well no.=6127): 97.9%

CC(C)(C)[C@]1(O)CCN2C[C@H]3c4ccccc4CCc4cccc(c43)[C@@H]2C1 (racemic)
remaining activity at 1.25 µM ([1]; Well no.=135): 101% | remaining activity at 3.75 µM ([2]; Well no.=135): 102%

NCCCC[C@H](N[C@@H](CCc1ccccc1)C(=O)O)C(=O)N1CCC[C@H]1C(=O)O [Lisinopril]
remaining activity at 1.25 µM ([1]; Well no.=2270): 91.3% | remaining activity at 3.75 µM ([2]; Well no.=2270): 93.2%

C#C[C@]1(O)CC[C@H]2[C@@H]3CCC4=CC(=O)CC[C@]4(C)[C@H]3CC[C@@]21C [Ethisterone]
remaining activity at 1.25 µM ([1]; Well no.=2030): 101% | remaining activity at 3.75 µM ([2]; Well no.=2030): 101%

CC(C)(C)NCC(O)COc1cccc2[nH]c(=O)[nH]c12 (racemic)
remaining activity at 1.25 µM ([1]; Well no.=629): 101% | remaining activity at 3.75 µM ([2]; Well no.=629): 101%

NC12CC3CC(CC(C3)C1)C2 [Amantadine hydrochloride]
remaining activity at 1.25 µM ([1]; Well no.=9): 104% | remaining activity at 3.75 µM ([2]; Well no.=9): 103%

Nc1ccc(S(=O)(=O)Nc2cnc3ccccc3n2)cc1 [Sulfaquinoxaline sodium salt]
remaining activity at 1.25 µM ([1]; Well no.=8124): 103% | remaining activity at 3.75 µM ([2]; Well no.=8124): 100%

COC(=O)Nc1nc2cc(C(=O)c3cccs3)ccc2[nH]1 [Nocodazole]
remaining activity at 1.25 µM ([1]; Well no.=824): 99.3% | remaining activity at 1.25 µM ([1]; Well no.=6258): 96.5% | remaining activity at 3.75 µM ([2]; Well no.=824): 101% | remaining activity at 3.75 µM ([2]; Well no.=6258): 94.1%

NC(=O)c1ncn([C@@H]2O[C@H](CO)[C@@H](O)[C@H]2O)n1 [Ribavirin]
remaining activity at 1.25 µM ([1]; Well no.=1256): 96.8% | remaining activity at 1.25 µM ([1]; Well no.=2199): 96.4% | remaining activity at 3.75 µM ([2]; Well no.=1256): 97.1% | remaining activity at 3.75 µM ([2]; Well no.=2199): 98.2%

N/C(=N\N=C\c1ccc(-c2cccc([N+](=O)[O-])c2)o1)N[N+](=O)[O-] [ERK Inhibitor III]
remaining activity at 1.25 µM ([1]; Well no.=2422): 101% | remaining activity at 3.75 µM ([2]; Well no.=2422): 104%

O=C(O)Cc1ccccc1Nc1c(Cl)cccc1Cl [Diclofenac Potassium]
remaining activity at 1.25 µM ([1]; Well no.=5307): 101% | remaining activity at 3.75 µM ([2]; Well no.=5307): 100%

CC(C)[C@H]1[C@@H]2CC[C@@H](C2)[C@@H]1N [AGN 192403 hydrochloride]
remaining activity at 1.25 µM ([1]; Well no.=116): 101% | remaining activity at 3.75 µM ([2]; Well no.=116): 104%

CCOC(=O)/C=C(C)/C=C/C=C(C)/C=C/c1c(C)cc(OC)c(C)c1C [Etretinate]
remaining activity at 1.25 µM ([1]; Well no.=2070): 102% | remaining activity at 3.75 µM ([2]; Well no.=2070): 101%

C[C@@H]1C[C@H]2O[C@@H]2/C=C\C=C\C(=O)Cc2c(Cl)c(O)cc(O)c2C(=O)O1 [Radicicol]
remaining activity at 1.25 µM ([1]; Well no.=3124): 95.9% | remaining activity at 3.75 µM ([2]; Well no.=3124): 98.1%

NCCc1c[nH]c2ccc(C(N)=O)cc12 [5-Carboxamidotryptamine maleate]
remaining activity at 1.25 µM ([1]; Well no.=533): 104% | remaining activity at 3.75 µM ([2]; Well no.=533): 104%

Nc1nc2ccc(Cl)cc2c2nc(-c3ccco3)nn12 [CGS-15943]
remaining activity at 1.25 µM ([1]; Well no.=393): 104% | remaining activity at 3.75 µM ([2]; Well no.=393): 104%

CCCSc1ccc2[nH]c(NC(=O)OC)nc2c1 [Albendazole]
remaining activity at 1.25 µM ([1]; Well no.=2083): 103% | remaining activity at 3.75 µM ([2]; Well no.=2083): 105%

NCCCC[C@H](NC(=O)[C@@H]1CCCN1C(=O)[C@@H]1CSSC[C@H](NC(=O)CNC(=O)CNC(=O)CN)C(=O)N[C@@H](Cc2ccc(O)cc2)C(=O)N[C@@H](Cc2ccccc2)C(=O)N[C@@H](CCC(N)=O)C(=O)N[C@@H](CC(N)=O)C(=O)N1)C(=O)NCC(N)=O [Terlipressin] (H-GGGCYFQNCPKG-NH2; disulfide 4-9)
remaining activity at 1.25 µM ([1]; Well no.=8103): 106% | remaining activity at 3.75 µM ([2]; Well no.=8103): 104%

CCCCCCCCCCCCCCCCCCCCCCC(=O)O [Tricosanoic acid]
remaining activity at 1.25 µM ([1]; Well no.=4496): 91.3% | remaining activity at 3.75 µM ([2]; Well no.=4496): 92.7%

CN1CCN(c2ccc3nc(-c4c(N)c5c(F)cccc5[nH]c4=O)[nH]c3c2)CC1 [CHIR-258]
remaining activity at 1.25 µM ([1]; Well no.=2757): 96.4% | remaining activity at 3.75 µM ([2]; Well no.=2757): 95.3%

CN(C)[C@@H]1CCc2[nH]c3ccc(NC(=O)c4ccc(F)cc4)cc3c2C1 [N-[(3R)-3-(dimethylamino)-2,3,4,9-tetrahydro-1H-carbazol-6-yl]-4-fluorobenzamide hydrochloride]
remaining activity at 1.25 µM ([1]; Well no.=6008): 97.7% | remaining activity at 3.75 µM ([2]; Well no.=6008): 95.9%

O=C(O)C1CCNCC1 [Isonipecotic acid]
remaining activity at 1.25 µM ([1]; Well no.=1067): 92.8% | remaining activity at 3.75 µM ([2]; Well no.=1067): 96.7%

O=C(Nc1ccc(S(=O)(=O)Nc2nccs2)cc1)C(c1ccccc1)c1ccccc1 [ICA-121431]
remaining activity at 1.25 µM ([1]; Well no.=7878): 98.2% | remaining activity at 3.75 µM ([2]; Well no.=7878): 99.6%

COc1ccc(CCC(=O)Nc2nc3ccc(Cl)cc3s2)cc1OC [KY02111]
remaining activity at 1.25 µM ([1]; Well no.=4782): 105% | remaining activity at 3.75 µM ([2]; Well no.=4782): 98.2%

C[C@H](CCC(=O)O)[C@H]1CC[C@H]2[C@@H]3C[C@H](O)[C@@H]4C[C@H](O)CC[C@]4(C)[C@H]3CC[C@]12C [Hyodeoxycholic acid]
remaining activity at 1.25 µM ([1]; Well no.=5868): 103% | remaining activity at 3.75 µM ([2]; Well no.=5868): 101%

Cc1ccc2c(=O)c3cccc(CC(=O)O)c3oc2c1C [Vadimezan]
remaining activity at 1.25 µM ([1]; Well no.=8465): 104% | remaining activity at 3.75 µM ([2]; Well no.=8465): 97.4%

COC(=O)C[C@H](NC(=O)[C@H](C)NC(=O)[C@@H](NC(=O)OCc1ccccc1)C(C)C)C(=O)CF [Z-VAD(OMe)-FMK] (Cbz-Val-Ala-Asp(OMe)-CH2F)
remaining activity at 1.25 µM ([1]; Well no.=7116): 101% | remaining activity at 1.25 µM ([1]; Well no.=8598): 100% | remaining activity at 3.75 µM ([2]; Well no.=7116): 94.5% | remaining activity at 3.75 µM ([2]; Well no.=8598): 100%

CO[C@H]1[C@H](O)[C@H](O[C@H]2CC[C@@]3(C=O)[C@H](CC[C@@H]4[C@@H]3CC[C@]3(C)[C@@H](C5=CC(=O)OC5)CC[C@]43O)C2)O[C@@H](C)[C@@H]1O [Peruvoside]
remaining activity at 1.25 µM ([1]; Well no.=3687): 97.8% | remaining activity at 3.75 µM ([2]; Well no.=3687): 102%

N=C(N)Nc1ccc(C(=O)Oc2ccc3cc(C(=N)N)ccc3c2)cc1 [Nafamostat mesylate]
remaining activity at 1.25 µM ([1]; Well no.=4809): 104% | remaining activity at 3.75 µM ([2]; Well no.=4809): 104%

Nc1nc2[nH]cnc2c(=S)[nH]1 [Thioguanine]
remaining activity at 1.25 µM ([1]; Well no.=4624): 102% | remaining activity at 3.75 µM ([2]; Well no.=4624): 102%

CC(=O)O/N=C1\C(=O)N(Cc2cc(Cl)ccc2Cl)c2ccc(Cl)cc21 [LDN-57444]
remaining activity at 1.25 µM ([1]; Well no.=5908): 94.9% | remaining activity at 3.75 µM ([2]; Well no.=5908): 91.7%

COC(=O)[C@H](c1ccccc1Cl)N1CCc2sccc2C1 [Clopidogrel]
remaining activity at 1.25 µM ([1]; Well no.=2277): 90.2% | remaining activity at 3.75 µM ([2]; Well no.=2277): 93%

Cn1cnc2c(ncn2[C@@H]2O[C@H](CO)[C@@H](O)[C@H]2O)c1=N [1-Methyladenosine]
remaining activity at 1.25 µM ([1]; Well no.=7121): 102% | remaining activity at 3.75 µM ([2]; Well no.=7121): 98.5%
